Experimental data published in article PMC9736344, “Discovery of a Novel Bloom’s Syndrome Protein (BLM) Inhibitor Suppressing Growth and Metastasis of Prostate Cancer” (International Journal of Molecular Sciences, 2022).

Target: T1, Bloom's syndrome protein (BLM) helicase (Homo sapiens, UniProt P54132)
T1 construct: BLM 642-1290
Assay: fluorescence polarization DNA-binding and unwinding assays, EMSA, malachite green ATPase assay with purified BLM642-1290; CD spectral change
Assay type: biochemical
Conditions: not given

T1 sequence (P54132 642-1290): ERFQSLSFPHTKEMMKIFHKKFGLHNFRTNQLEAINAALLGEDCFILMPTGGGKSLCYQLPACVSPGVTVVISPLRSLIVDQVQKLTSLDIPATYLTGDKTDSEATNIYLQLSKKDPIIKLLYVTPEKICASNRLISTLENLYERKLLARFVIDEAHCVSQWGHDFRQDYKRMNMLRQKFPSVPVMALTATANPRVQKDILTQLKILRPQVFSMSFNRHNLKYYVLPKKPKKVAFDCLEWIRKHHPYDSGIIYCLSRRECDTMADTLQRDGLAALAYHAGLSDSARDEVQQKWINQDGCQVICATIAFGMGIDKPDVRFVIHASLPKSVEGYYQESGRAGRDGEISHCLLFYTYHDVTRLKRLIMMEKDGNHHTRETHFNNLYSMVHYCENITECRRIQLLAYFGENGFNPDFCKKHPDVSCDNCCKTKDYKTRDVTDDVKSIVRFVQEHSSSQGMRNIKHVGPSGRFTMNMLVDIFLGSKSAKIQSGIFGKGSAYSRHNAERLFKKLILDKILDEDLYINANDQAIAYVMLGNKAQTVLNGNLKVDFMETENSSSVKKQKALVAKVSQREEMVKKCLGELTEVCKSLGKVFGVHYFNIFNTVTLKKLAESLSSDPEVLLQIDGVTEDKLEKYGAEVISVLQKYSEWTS

| Structure (SMILES) | IC50 [µM] |
| --- | --- |
| Cc1cc(C2(c3ccc(O)c(C)c3)OC(=O)c3ccccc32)ccc1O [AO/854, AO/854/43447428] | < 10 |

Target: T1, Bloom's syndrome protein (BLM) helicase
Assay: biochemical
Set-up: fluorescence polarization; displacement of fluorescein-dsDNA bound to BLM642-1290; relative DNA binding activity
Conditions: dsDNA binding; read-out: % of control remaining
Experimental: First, fluorescein-labeled dsDNA (2 nM) was added into a reaction buffer (20 mM Tris, 25 mM NaCl, 3 mM MgCl2, 0.1 mM DTT, pH 7.9) to detect the fluorescence anisotropy until it was stable. Then, 500 nM BLM^642−1290 was added to equilibrate the DNA substrate, and the fluorescence anisotropy value was then detected. Finally, small molecules with a concentration of 10 μM were added, and the fluorescence anisotropy value was detected until it was stable. The total reaction volume was adjusted to 150 μL by adjusting with ddH2O volume. The ability of AO/854 to inhibit the ability of the BLM^642−1290 to bind to dsDNA and ssDNA was also assessed using a fluorescence polarization assay. The method used was similar to that described above, except different concentrations of AO/854 were added to the reaction. By using the same protocol, we detected AO/854 affecting DNA unwinding of BLM^642−1290. The 0–50 μM concentrations of AO/854 were added to the reaction. In the final step, 0.2 mM of ATP was added to the reaction. The fluorescence anisotropy value was detected until it was stable. The inhibiting ratio of BLM on DNA binding activity and DNA unwinding activity was determined. By using high-throughput virtual and protein-based screening assays, we discovered an isobenzofuranone compound with the desired properties. The flow chart of our work is as follows (Figure 2A). Before the first round of docking using the Autodock Vina, an optimized database (approximately 200,000 compounds) was achieved by filtering using Lipinski’s rule of five and Veber rules and removing duplicate molecules from the Specs database (Figure S1). The top 1000 compounds from the previous step were docked with Autodock (Figure S2). The top 30 small molecules (Table S1) obtained through virtual screening were dissolved in DMSO and prepared into mother liquor at a concentration of 20 mM. We purified a truncated structure of BLM that retained helicase activity in vitro (Figure S3), selected a fluorescein-labeled dsDNA as a substrate, and used a fluorescence polarization assay to determine if the promising compounds disrupted the binding between BLM and DNA.

| Structure (SMILES) | remaining activity at 10 µM [%] |
| --- | --- |
| O=[N+]([O-])c1ccc(S(=O)(=O)Oc2ccc(C3(c4ccc(OS(=O)(=O)c5ccc([N+](=O)[O-])cc5)cc4)c4ccccc4-c4ccccc43)cc2)cc1 [compound 1] | 98.9 |
| Cc1cc(C2(c3ccc(O)c(C)c3)OC(=O)c3ccccc32)ccc1O [compound 2] | 31.5 |
| Cc1ccc(-c2csc3nc(SCC(=O)Nc4cccc5ccccc45)n(-c4ccccc4)c(=O)c23)o1 [compound 3] | 94.9 |
| CCCCC(OC(=O)c1ccc(N2C(=O)C3C4c5ccccc5C(c5ccccc54)C3C2=O)cc1)C(=O)c1ccc(-c2ccccc2)cc1 (centres unmarked) [compound 10] | 103 |
| Cc1ccc(-c2csc3nc(SCC(=O)Nc4ccc(C)c(C)c4)n(-c4ccccc4)c(=O)c23)o1 [compound 19] | 93.9 |
| O=C1c2cc(S(=O)(=O)Nc3cccc4ccccc34)ccc2-c2ccc(S(=O)(=O)Nc3cccc4ccccc34)cc21 [compound 20] | 96.6 |
| CC(=O)Nc1ccc(N2C(=O)c3ccc(C(=O)c4ccc5c(c4)C(=O)N(c4ccc(NC(C)=O)cc4)C5=O)cc3C2=O)cc1 [compound 28] | 97.3 |
